Source: patent US6534524B1, “Indazole compounds and pharmaceutical compositions for inhibiting protein kinases, and methods for their use” (Agouron Pharmaceuticals, Inc., priority 1999, dated 2003)
Like-named read-outs stand apart in the source and are kept apart here.

Experiments:
[1] = system: human umbilical vein endothelial cells (HUVEC); assay: HUVEC proliferation assay (VEGF-stimulated, MTT); type: cell-based; settings: for % inhibition: Library III, HUVEC proliferation, nominal concentration of 0.5 nM; for % inhibition / % inhibition of the proliferation of HUVEC: crude reaction mixtures;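 for % inhibition of the proliferation of HUVEC: relative to VEGF-stimulated control minus starvation-medium baseline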
[2] = Determination of inhibitor concentration in mouse plasma after intraperitoneal and oral dosing; type: in vivo; settings: PO
Description: Blood collection was via ocular bleed at 0.5, 1, 4 hr with the final time point, 7 hour, via intracardiac puncture. The blood was centrifuged to collect plasma, which was then stored at −80° C. until analysis. Samples were prepared for analysis using an internal standard and sodium hydroxide. After vortexing, ethyl acetate was added and mixed for 15-20 minutes at ambient temperature. […] The samples were then analyzed via HPLC or LC-MS. Compound levels were quantitated by generating a standard curve of known compound concentration in mouse plasma.

[3] = 10 mg/kg, vehicle PEG400:H2O pH 2.3 60:40
[4] = Homo sapiens, HUVEC, + albumin, read-out: HUVEC + albumin IC50
[5] = Library II, Y=S, 0.5 mM (column head; text: nominal 0.5 nM)
[6] = Library I, Y = CO, nominal concentration of 10 nM
[7] = Library I, Y = NH, nominal concentration of 10 nM
[8] = Library I, Y = O, nominal concentration of 10 nM
[9] = Library II, Y=S, 2 mM (column head; text: nominal 2 nM)

Compound: O=C(Nc1ccccc1F)c1ccccc1Sc1ccc2c(/C=C/c3ccccn3)n[nH]c2c1
- % inhibition [1]: 17%

Compound: N#Cc1[nH]cnc1NC(=O)c1ccccc1Sc1ccc2c(/C=C/c3ccccn3)n[nH]c2c1
- % inhibition [1]: −13%

Compound: CC(C)(C)c1cc(NC(=O)c2ccccc2Sc2ccc3c(/C=C/c4ccccn4)n[nH]c3c2)n[nH]1
- % inhibition [1]: −21%

Compound: N/C(=N\O)c1[nH]cnc1NC(=O)c1ccccc1Sc1ccc2c(/C=C/c3ccccn3)n[nH]c2c1
- % inhibition [1]: −15%

Compound: O=C(Nc1cc(Cl)nc(Cl)c1)c1ccccc1Sc1ccc2c(/C=C/c3ccccn3)n[nH]c2c1
- % inhibition [1]: 0%

Compound: 6-(3-Benzamidobenzoyl)-3-E-[N-(4H-1,2,4-triazol-4-yl)iminomethyl]-1H-indazole [Example 42(e)]
- IC50 ([1]; + albumin, read-out: HUVEC + albumin IC50): 95 nM

Compound: Cc1cccc(C(=O)Nc2cccc(Oc3ccc4c(/C=C/c5ccccc5)n[nH]c4c3)c2)c1 [5b]
- AUClast [2, 3]: 0.061 µg·h/mL
- plasma half-life (T1/2) [2, 3]: 3.1 h

Compound: CCn1nc(C)cc1C(=O)Nc1cccc(Oc2ccc3c(/C=C/c4cn(C)c(C)n4)n[nH]c3c2)c1 [Example 31(f), 6-[3-((1-Ethyl-3-methyl-1H-pyrazol]-5-yl)carboxanido)phenoxyl-3-E-[2-(1,2-dimethyl-1Himidazol-4-yl)ethenyl]-1H-indazole]
- plasma half-life (T1/2) ([2]; 25 mg/kg, vehicle PEG400:H2O pH 2.3 30:70): 2.6 h
- AUC(0-t) ([2]; female, 25 mg/kg, vehicle PEG400:H2O pH 2.3 30:70): > 245 µg·h/mL
- Cmax ([2]; female, 25 mg/kg, vehicle PEG400:H2O pH 2.3 30:70, read-out: Cmax): > 50000 ng/mL
- concentration at 7 h ([2]; female, 25 mg/kg, vehicle PEG400:H2O pH 2.3 30:70, read-out: Cmin (7 hr conc.)): 9520 ng/mL

Compound: NC(=O)c1ccccc1Sc1ccc2c(/C=C/c3ccccn3)n[nH]c2c1 [Example 35(d), 6-(2-Carbamoylphenylsulfanyl)-3-E-[2-(pyridin-2-yl)ethenyl]-1H-indazole]
- IC50 [1, 4]: > 100 nM

Compound: CNCCNC(=O)c1ccccc1Sc1ccc2c(/C=C/c3ccccn3)n[nH]c2c1 [Example 35(gg), 6-[2-(2-(Methylamino)ethylcarbamoyl)phenylsulfanyl]-3-E-[2-(pyridin-2-yl)ethenyl]-1H-indazole]
- IC50 [1, 4]: > 100 nM

Compound: O=C(N/N=C/c1ccccn1)c1ccccc1Sc1ccc2c(/C=C/c3ccccn3)n[nH]c2c1 [Example 36(b)]
- IC50 [1, 4]: > 30 nM

Compound: O=C(N/N=C/C(F)(F)F)c1ccccc1Sc1ccc2c(/C=C/c3ccccn3)n[nH]c2c1 [Example 36(c)]
- IC50 [1, 4]: > 30 nM

Compound: CNC(=O)c1cccc(F)c1Sc1ccc2c(/C=C/c3ccccn3)n[nH]c2c1 [Example 37(d), 6-[6-Fluoro-2-(methylcarbamoyl)phenylsulfanyl]-3-E-[2-(pyridin-2-yl)ethenyl]-1H-indazole]
- IC50 [1, 4]: > 100 nM

Compound: O=C(Nc1cccc(C(=O)c2ccc3c(/C=C/c4ccccn4)n[nH]c3c2)c1)Oc1ccccc1 [Example 41(cc), 6-[3-(Phenoxyamindo)benzoyl]-3-E-[2-(pyridin-2-yl)ethenyl]-1H-indazole]
- IC50 ([1]; Homo sapiens, HUVEC, read-out: HUVEC + albumin IC50): > 100 nM

Compound: CC(=O)Nc1cc(C(=O)c2ccc3c(/C=C/c4ccccn4)n[nH]c3c2)c(C)cc1C [Example 41(nn), 6-(5-Acetamido-2,4-dimethylbenzoyl)-3-E-[2-(pyridin-2-yl)ethenyl]-1H-indazole]
- IC50 [1, 4]: > 100 nM

Compound: Nc1cccc(C(=O)c2ccc3c(/C=N/n4cccc4)n[nH]c3c2)c1 [Example 44]
- IC50 ([1]; Homo sapiens, HUVEC, read-out: HUVEC IC50): > 700 nM

Compound: NC(=O)c1ccccc1Sc1ccc2c(/C=C/c3ccccn3)n[nH]c2c1 [H-X1]
- % inhibition of the proliferation of HUVEC [1, 5]: 9%

Compound: O=C(NC1CCS(=O)(=O)C1)c1ccc2c(-c3nc4ccccc4[nH]3)n[nH]c2c1 (centres unmarked) [drawing 576]
- % inhibition of the proliferation of HUVEC [1, 6]: 47%
- % inhibition of the proliferation of HUVEC [1, 7]: 10%
- % inhibition of the proliferation of HUVEC [1, 8]: 17%

Compound: O=C(Nc1ccc2[nH]c(=O)[nH]c2c1)c1ccc2c(-c3nc4ccccc4[nH]3)n[nH]c2c1 [drawing 582]
- % inhibition of the proliferation of HUVEC [1, 6]: 42%
- % inhibition of the proliferation of HUVEC [1, 7]: 6%
- % inhibition of the proliferation of HUVEC [1, 8]: 13%

Compound: O=C(Nc1ccc(O)cc1)c1ccc2c(-c3nc4ccccc4[nH]3)n[nH]c2c1 [drawing 585]
- % inhibition of the proliferation of HUVEC [1, 6]: 33%
- % inhibition of the proliferation of HUVEC [1, 7]: 3%
- % inhibition of the proliferation of HUVEC [1, 8]: 32%

Compound: O=C(NC1CC1)c1ccc2c(-c3nc4ccccc4[nH]3)n[nH]c2c1 [drawing 587]
- % inhibition of the proliferation of HUVEC [1, 6]: 20%
- % inhibition of the proliferation of HUVEC [1, 7]: 0%
- % inhibition of the proliferation of HUVEC [1, 8]: 43%

Compound: O=C(Nc1cnccn1)c1ccc2c(-c3nc4ccccc4[nH]3)n[nH]c2c1 [drawing 595]
- % inhibition of the proliferation of HUVEC [1, 6]: −11%
- % inhibition of the proliferation of HUVEC [1, 7]: −7%
- % inhibition of the proliferation of HUVEC [1, 8]: 52%

Compound: O=C(Nc1ncnc2[nH]cnc12)c1ccc2c(-c3nc4ccccc4[nH]3)n[nH]c2c1 [drawing 600]
- % inhibition of the proliferation of HUVEC [1, 6]: 27%
- % inhibition of the proliferation of HUVEC [1, 7]: −9%
- % inhibition of the proliferation of HUVEC [1, 8]: 52%

Compound: COc1ccc(NC(=O)c2ccc3c(-c4nc5ccccc5[nH]4)n[nH]c3c2)cc1O [drawing 607]
- % inhibition of the proliferation of HUVEC [1, 5]: 19%
- % inhibition of the proliferation of HUVEC [1, 9]: 89%

Compound: COC(=O)c1ccc(NC(=O)c2ccc3c(-c4nc5ccccc5[nH]4)n[nH]c3c2)o1 [drawing 608]
- % inhibition of the proliferation of HUVEC [1, 5]: 38%
- % inhibition of the proliferation of HUVEC [1, 9]: 2%

Compound: C=CCC(NC(=O)c1ccc2c(-c3nc4ccccc4[nH]3)n[nH]c2c1)c1ccccn1 (centres unmarked) [drawing 609]
- % inhibition of the proliferation of HUVEC [1, 5]: 37%
- % inhibition of the proliferation of HUVEC [1, 9]: 16%

Compound: COC(=O)c1cc(NC(=O)c2ccc3c(-c4nc5ccccc5[nH]4)n[nH]c3c2)ccc1O [drawing 610]
- % inhibition of the proliferation of HUVEC [1, 5]: 39%
- % inhibition of the proliferation of HUVEC [1, 9]: 15%

Compound: CC(C)CCNC(=O)c1ccccc1Sc1ccc2c(/C=C/c3ccccn3)n[nH]c2c1 [drawing 614]
- % inhibition of the proliferation of HUVEC [1, 5]: 14%
- % inhibition of the proliferation of HUVEC [1, 9]: 55%

Compound: O=C(NCC(F)(F)F)c1ccccc1Sc1ccc2c(/C=C/c3ccccn3)n[nH]c2c1 [drawing 626]
- % inhibition of the proliferation of HUVEC [1, 5]: 34%
- % inhibition of the proliferation of HUVEC [1, 9]: 61%

Compound: CNC(=O)c1ccccc1Sc1ccc2c(/C=C/c3ccccn3)n[nH]c2c1 [drawing 635]
- % inhibition of the proliferation of HUVEC [1, 5]: 8%
- % inhibition of the proliferation of HUVEC [1, 9]: 21%

Compound: CC(C)(C)CNC(=O)c1ccccc1Sc1ccc2c(/C=C/c3ccccn3)n[nH]c2c1 [drawing 687]
- % inhibition of the proliferation of HUVEC [1, 5]: 5%
- % inhibition of the proliferation of HUVEC [1, 9]: −6%

Compound: O=C(NCC1(O)CCCCC1)c1ccccc1Sc1ccc2c(/C=C/c3ccccn3)n[nH]c2c1 [drawing 688]
- % inhibition of the proliferation of HUVEC [1, 5]: 26%
- % inhibition of the proliferation of HUVEC [1, 9]: −19%

Compound: CCNC(=O)c1ccccc1Sc1ccc2c(/C=C/c3ccccn3)n[nH]c2c1 [drawing 696]
- % inhibition of the proliferation of HUVEC [1, 5]: 16%
- % inhibition of the proliferation of HUVEC [1, 9]: 17%

Compound: CC(C)(C)CNC(=O)c1ccccc1Sc1ccc2c(/C=C/c3ccccn3)n[nH]c2c1 [drawing 728]
- % inhibition of the proliferation of HUVEC [1, 5]: 19%
- % inhibition of the proliferation of HUVEC [1, 9]: 24%

Compound: CCOCCNC(=O)c1ccccc1Sc1ccc2c(/C=C/c3ccccn3)n[nH]c2c1 [drawing 732]
- % inhibition of the proliferation of HUVEC [1, 5]: 53%
- % inhibition of the proliferation of HUVEC [1, 9]: 75%

Compound: O=C(Nc1nccs1)c1ccccc1Sc1ccc2c(/C=C/c3ccccn3)n[nH]c2c1 [drawing 740]
- % inhibition of the proliferation of HUVEC [1, 5]: 33%
- % inhibition of the proliferation of HUVEC [1, 9]: 94%

Compound: O=C(NCC1CC1)c1ccccc1Sc1ccc2c(/C=C/c3ccccn3)n[nH]c2c1 [drawing 758]
- % inhibition of the proliferation of HUVEC [1, 5]: 35%
- % inhibition of the proliferation of HUVEC [1, 9]: 69%

Compound: O=C(NNc1ccccn1)c1ccccc1Sc1ccc2c(/C=C/c3ccccn3)n[nH]c2c1 [drawing 760]
- % inhibition of the proliferation of HUVEC [1, 5]: 32%
- % inhibition of the proliferation of HUVEC [1, 9]: 92%

Compound: Cc1ccc(CNC(=O)c2ccccc2Sc2ccc3c(/C=C/c4ccccn4)n[nH]c3c2)o1 [drawing 763]
- % inhibition of the proliferation of HUVEC [1, 5]: 56%
- % inhibition of the proliferation of HUVEC [1, 9]: 96%

Compound: O=C(NC1CCSC1=O)c1ccccc1Sc1ccc2c(/C=C/c3ccccn3)n[nH]c2c1 (centres unmarked) [drawing 785]
- % inhibition of the proliferation of HUVEC [1, 5]: 25%
- % inhibition of the proliferation of HUVEC [1, 9]: 40%

Compound: O=C(NCc1cccc(F)c1)c1ccccc1Sc1ccc2c(/C=C/c3ccccn3)n[nH]c2c1 [drawing 797]
- % inhibition of the proliferation of HUVEC [1, 5]: 81%
- % inhibition of the proliferation of HUVEC [1, 9]: 95%

Compound: CC(C)CC(CO)NC(=O)c1ccccc1Sc1ccc2c(C=Cc3ccccn3)n[nH]c2c1 (centres unmarked) [drawing 1015]
- % inhibition ([1]; 0.0005 µM): −13%

Compound: CC(C)CC(CO)NC(=O)c1ccccc1Sc1ccc2c(C=Cc3ccccn3)n[nH]c2c1 (centres unmarked) [drawing 1021]
- % inhibition [1]: −2%

Compound: O=C(Nc1cccc(Cl)c1)c1ccccc1Sc1ccc2c(/C=C/c3ccccn3)n[nH]c2c1 [drawing 1041]
- % inhibition [1]: −15%

Compound: O=C(NC1CC1)c1ccccc1Sc1ccc2c(/C=C/c3ccccn3)n[nH]c2c1 [drawing 1069]
- % inhibition [1]: 29%

Compound: C#CCNC(=O)c1ccccc1Sc1ccc2c(/C=C/c3ccccn3)n[nH]c2c1 [drawing 1123]
- % inhibition [1]: 9%

Compound: O=C(Nc1ccccc1)c1ccccc1Sc1ccc2c(/C=C/c3ccccn3)n[nH]c2c1 [drawing 1131]
- % inhibition [1]: 11%

Compound: O=C(NC1CCSC1=O)c1ccccc1Sc1ccc2c(/C=C/c3ccccn3)n[nH]c2c1 (centres unmarked) [drawing 1141]
- % inhibition [1]: −8%

Compound: O=C(NCC1(O)CCCCC1)c1ccccc1Sc1ccc2c(/C=C/c3ccccn3)n[nH]c2c1 [drawing 1197]
- % inhibition [1]: 2%
